For orientation: IC50 means the concentration at which inhibition is half-maximal.

This note sets out measurements from US9994515B2, “Aryl naphthyl methanone oxime(s) and process for preparation thereof” (Council of Scientific & Industrial Research, priority 2013, dated 2018).

Structures can show the parent of a compound that is named as a salt.

In data set [1] the test system is CD133+ DLD1 colon cancer cells. Briefly: CD133+ colon cancer stem cell population by flow cytometry. The data set is classed as cell-based. The following applies: 20 uM, 24 h, vehicle 15.30%. How it is done:
FIG. 9. Centans reduces CD133+ colon cancer stem cells with a higher efficacy than salinomycin. DLD1 colon cancer cells were treated with indicated compounds for 24h following which the CD133+ population was assessed by flow cytometry using CD133 antibody or relevant isotype control antibody (BD biosciences) in a Becton Dickinson FACS Calibur. Numbers in the dot plot represent % CD133+ cells.
For orientation: A flow cytometer gives signals particle by particle.

For the next data set, the system named is HL-60. Briefly: Cell cycle analysis (PI staining, flow cytometry) in HL-60. The data set is classed as cell-based. The following applies: 0.5 μM. How it is done: Propidium iodide (PI) staining of K562 cells (A) and HL-60 cells (B) treated with vehicle (DMSO) or 0.5 μM Centans, followed by flow cytometry analysis to find % distribution of cells in different phases of the cell cycle. Data has been shown as percent of total cells from data pooled from three independent experiments. (C and D). mRNA expression of cell cycle regulatory factors—K562 (C) or HL-60 (D) cells were treated with Vehicle or Centans, followed by mRNA isolation and cDNA preparation and quantitative real-time PCR (p21, p27 and cyclin D1). Graphs represented pooled data from three independent experiments. *P<0.05, **P<0.01,***P<0.001 compared to vehicle treated control.

In the next data set the test system is U937. The data set can be described thus: Cytotoxicity in U937 cells. It counts as cell-based. The following applies: Table 2; oxalate.
A further data set concerns NIH3T3. Briefly: MTT cytotoxicity assay in NIH3T3 fibroblasts. The data set is classed as cell-based, mouse.
Data set [2] relates to PBMCs from patients with BCR-ABL Y253H mutation. The data set can be described thus: MTT cytotoxicity in PBMCs from CML patient with Y253H BCR-ABL mutation. It counts as cell-based, human. The following applies: 5 μM, 48 h.
The subject of data set [3] is PBMCs from patients with BCR-ABL E255V mutation. The data set can be described thus: MTT cytotoxicity in PBMCs from CML patient with E255V BCR-ABL mutation. It counts as cell-based, human. The following applies: 5 μM, 48 h.
For a further data set, the target named is T1, EGFR (Homo sapiens, UniProt P00533).
T1 construct: Serum starved (A,C) MCF-7 cells and (B,D) MDA-MB231 cells were pre-incubated for 1 h; endogenous in cells; host or cells: MCF-7
The data set can be described thus: EGF dependent EGFR phosphorylation ELISA in MDA-MB-231 cells. It counts as cell-based. The following applies: read-out: IC50 in terms of EGFR phosphorylation. How it is done:
Since EGFR and Her2 play major roles in breast cancer development and metastatis, the effect of Centans on regulation of these two factors was evaluated in MCF-7 and MDA-MB-231 cells by enzyme-linked immunosorbant assays (ELISA). As depicted in FIGS. 7. A and B, EGF dependent EGFR phosphorylation at Tyr^1068 was strongly attenuated by Centans in both MCF-7 and MDA-MB-231 cells and this effect was much stronger than that of Gefitinib (marketted EGFR inhibitor/anti-cancer drug).
FIG. 7. Inhibition of EGFR and Her2 phosphorylation by Centans in MCF-7 and MDA-MB231 cells. Serum starved (A,C) MCF-7 cells and (B,D) MDA-MB231 cells were pre-incubated for 1 h with the indicated concentrations of Centans prior to stimulation with EGF for 15 min and EGFR (A and B) or Her2 (C and D) phosphorylation were measured by ELISA. Gef=Gefitinib. All doses are in μM.
In general terms: ELISA stands for enzyme-linked immunosorbent assay.

The test system of a further data set is Vero. The data set can be described thus: Cytotoxicity in Vero kidney epithelial cells. The data set is classed as cell-based, monkey. How it is done:
To consider a molecule as a candidate compound in cancer drug therapy, the test compound must have specific cytotoxicity towards the cancer cells without affecting normal cell growth. Therefore, all active compounds were assessed for toxicity in non-cancer cell-lines: mouse fibroblast cell line (NIH3T3) and monkey kidney epithelial cells (Vero). […] Therefore, based on safety index ([…]), 5d [Centans; based on IUPAC name prefixed with Central Drug Research Institute's signature (Cent)] was selected as a lead compound.

The next data set has as its target SRC (Homo sapiens, UniProt P12931). The data set can be described thus: SRC phosphorylation by immunoblotting in K562 cells. The following applies: 0.5 μM, 1 μM Centans or 1 μM Imatinib, 48 h, western blot. A general note: Immunoblotting shows a protein as a band on a membrane.
Data set [4] deals with PBMCs from patients with BCR-ABL H396R mutation. The data set can be described thus: MTT cytotoxicity in PBMCs from CML patient with H396R BCR-ABL mutation. It counts as cell-based, human. The following applies: 5 μM, 48 h.
The test system of the next data set is DU-145. The data set can be described thus: MTT assay in DU-145 prostate tumor cells. The data set is classed as cell-based. The following applies: Homo sapiens, DU-145, Table 6, 48 h, 10 point dose response.
A further data set has as its system Colo205. Briefly: Sulphorhodamine B assay in Colo205 colon cancer cells. It counts as cell-based. The following applies: Homo sapiens, COLO 205; SRB assay.

T1 sequence (P00533 25-1210): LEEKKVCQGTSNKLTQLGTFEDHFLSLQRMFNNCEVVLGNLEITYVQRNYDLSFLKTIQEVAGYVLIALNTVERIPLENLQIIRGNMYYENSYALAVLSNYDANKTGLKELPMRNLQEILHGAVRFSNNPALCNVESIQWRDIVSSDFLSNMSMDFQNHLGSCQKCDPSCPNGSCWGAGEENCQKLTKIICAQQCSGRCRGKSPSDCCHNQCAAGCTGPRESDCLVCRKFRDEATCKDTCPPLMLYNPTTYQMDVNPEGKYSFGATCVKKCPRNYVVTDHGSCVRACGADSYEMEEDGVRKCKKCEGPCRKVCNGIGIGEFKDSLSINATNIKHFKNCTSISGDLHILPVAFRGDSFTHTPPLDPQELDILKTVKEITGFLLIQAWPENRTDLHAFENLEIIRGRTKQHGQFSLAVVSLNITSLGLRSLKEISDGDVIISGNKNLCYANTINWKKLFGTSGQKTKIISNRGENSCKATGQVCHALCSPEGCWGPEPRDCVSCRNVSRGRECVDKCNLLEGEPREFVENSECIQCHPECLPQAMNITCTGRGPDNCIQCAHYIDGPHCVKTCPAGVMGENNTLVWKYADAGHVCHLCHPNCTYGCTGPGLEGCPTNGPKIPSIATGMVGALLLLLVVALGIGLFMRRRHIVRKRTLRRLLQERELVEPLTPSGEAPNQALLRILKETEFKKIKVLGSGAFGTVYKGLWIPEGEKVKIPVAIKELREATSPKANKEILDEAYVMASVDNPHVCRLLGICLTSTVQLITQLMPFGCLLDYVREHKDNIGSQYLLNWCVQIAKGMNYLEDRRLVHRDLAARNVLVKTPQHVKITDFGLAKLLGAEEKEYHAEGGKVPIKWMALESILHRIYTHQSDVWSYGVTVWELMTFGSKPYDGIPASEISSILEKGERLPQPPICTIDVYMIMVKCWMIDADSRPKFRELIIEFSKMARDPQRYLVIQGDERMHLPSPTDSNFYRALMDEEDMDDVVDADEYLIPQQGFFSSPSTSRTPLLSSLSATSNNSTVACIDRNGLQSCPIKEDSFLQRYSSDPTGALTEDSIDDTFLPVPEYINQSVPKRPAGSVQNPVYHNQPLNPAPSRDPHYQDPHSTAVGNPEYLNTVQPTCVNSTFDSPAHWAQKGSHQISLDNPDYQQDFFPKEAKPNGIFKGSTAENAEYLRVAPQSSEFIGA
Chain of SRC (P12931 whole entry): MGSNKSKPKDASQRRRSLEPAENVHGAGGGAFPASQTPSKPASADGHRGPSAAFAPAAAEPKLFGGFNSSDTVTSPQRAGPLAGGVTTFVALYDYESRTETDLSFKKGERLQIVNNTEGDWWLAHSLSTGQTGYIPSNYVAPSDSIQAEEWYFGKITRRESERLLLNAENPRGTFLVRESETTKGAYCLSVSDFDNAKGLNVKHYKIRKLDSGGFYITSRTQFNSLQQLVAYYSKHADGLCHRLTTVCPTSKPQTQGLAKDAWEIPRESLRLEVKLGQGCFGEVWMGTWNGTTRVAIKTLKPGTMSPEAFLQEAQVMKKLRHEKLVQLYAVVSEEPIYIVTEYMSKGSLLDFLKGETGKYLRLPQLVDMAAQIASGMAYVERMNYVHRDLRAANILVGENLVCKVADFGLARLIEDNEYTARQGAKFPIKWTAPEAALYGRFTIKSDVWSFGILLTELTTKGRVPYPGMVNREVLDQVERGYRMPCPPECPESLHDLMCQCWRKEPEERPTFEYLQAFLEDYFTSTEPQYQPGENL

For the molecule `CCN(CC)CCO/N=C(/c1ccc(SC)cc1)c1cccc2ccccc12` [Compound 5d, (4-(methylthio)phenyl)(naphthalen-1-yl)methanone O-2-(diethylamino)ethyl oxime oxalate], in [1], the “CD133+ population after treatment (minus isotype control)” value turned out to be 2.94%. For the same molecule, the cell cycle distribution entry in the data set with HL-60 is “G1 and apoptotic sub-populations were significantly increased”. The IC50 with U937 is 8.12 µM; in the data set on NIH3T3 (Mus musculus, NIH3T3, Table 2, normal cell line) it was more than 20 µM; in the data set on NIH3T3 (Table 1, MTT assay after 48 h treatment, oxalate), more than 20 µM; at EGFR, 0.0128 µM; in the data set with Vero (Primates, Vero, Table 2, normal cell line), more than 25 µM; in the data set with DU-145 it was 9 µM. In the data set with Colo205, the half-inhibitory concentration (IC50) worked out at 4.2 µM. Further, the “% cell death” value in data set [2] came to 42.93%; in data set [3], 48.18%; in [4], 40.78%. Moreover, the “cytotoxicity in non-cancer cell-line Vero” value in the data set with Vero (MTT assay, solid tumor evaluation) is “not in non-cancer cell-lines Vero and HEK-293”. For the same molecule, the SRC dephosphorylation result on SRC is listed as “dephosphorylating SRC-1 in a dose dependent manner”.
